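Dose response: 5 concentrations. Exposure: 48 h. Format: 96-well plates. Endpoint: linear interpolation; highest concentration if not reached. GI50: concentration for 50% inhibition of growth.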 Calls of active or inactive are those of the source. Cut-off read from the data, not from the text of the source: active = GI50 up to about 1.1 µM and inactive = higher.
Legend:
Test in all cases: NCI tumour cell line growth inhibition, 48 h
[1] = test system: 786-0
[2] = test system: A498
[3] = test system: A549
[4] = test system: ACHN
[5] = test system: BT-549
[6] = test system: CAKI-1
[7] = test system: CCRF-CEM
[8] = test system: COLO 205
[9] = test system: DU-145
[10] = test system: EKVX
[11] = test system: HCC 2998
[12] = test system: HCT-116
[13] = test system: HL-60
[14] = test system: HOP-62
[15] = test system: HOP-92
[16] = test system: HT-29
[17] = test system: Hs-578T
[18] = test system: IGROV-1
[19] = test system: K562
[20] = test system: KM12
[21] = test system: M14
[22] = test system: MCF7
[23] = test system: MDA-MB-231
[24] = test system: MDA-MB-435
[25] = test system: MDA-N
[26] = test system: MOLT-4
[27] = test system: Malme-3M
[28] = test system: NCI-H226
[29] = test system: NCI-H23
[30] = test system: NCI-H460
[31] = test system: NCI-H522
[32] = test system: OVCAR-3
[33] = test system: OVCAR-4
[34] = test system: OVCAR-5
[35] = test system: OVCAR-8
[36] = test system: PC-3
[37] = test system: RXF 393
[38] = test system: SF-268
[39] = test system: SF-295
[40] = test system: SF-539
[41] = test system: SK-MEL-28
[42] = test system: SK-MEL-5
[43] = test system: SK-OV-3
[44] = test system: SN12C
[45] = test system: SNB-19
[46] = test system: SNB-75
[47] = test system: SR
[48] = test system: SW-620
[49] = test system: T47D
[50] = test system: TK-10
[51] = test system: U-251
[52] = test system: UACC-257
[53] = test system: UACC-62
[54] = test system: UO-31
[55] = test system: HCT-15
[56] = test system: LOX IMVI
[57] = test system: NCI/ADR-RES
[58] = test system: RPMI-8226
[59] = test system: SK-MEL-2

CC(=O)NC1(NC(C)=O)C2CC(C1Cc1ccccc1)C(C)(C)C2C (stereo unspecified)
GI50 [1]: > 100 µM (inactive)
GI50 [2]: > 100 µM (inactive)
GI50 [3]: > 100 µM (inactive)
GI50 [4]: > 100 µM (inactive)
GI50 [5]: > 100 µM (inactive)
GI50 [6]: > 100 µM (inactive)
GI50 [7]: > 100 µM (inactive)
GI50 [8]: > 100 µM (inactive)
GI50 [9]: > 100 µM (inactive)
GI50 [10]: > 100 µM (inactive)
GI50 [11]: > 100 µM (inactive)
GI50 [12]: > 100 µM (inactive)
GI50 [13]: > 100 µM (inactive)
GI50 [14]: > 100 µM (inactive)
GI50 [15]: > 100 µM (inactive)
GI50 [16]: > 100 µM (inactive)
GI50 [17]: > 100 µM (inactive)
GI50 [18]: > 100 µM (inactive)
GI50 [19]: > 100 µM (inactive)
GI50 [20]: > 100 µM (inactive)
GI50 [21]: > 100 µM (inactive)
GI50 [22]: > 100 µM (inactive)
GI50 [23]: > 100 µM (inactive)
GI50 [24]: > 100 µM (inactive)
GI50 [25]: > 100 µM (inactive)
GI50 [26]: > 100 µM (inactive)
GI50 [27]: > 100 µM (inactive)
GI50 [28]: > 100 µM (inactive)
GI50 [29]: > 100 µM (inactive)
GI50 [30]: > 100 µM (inactive)
GI50 [31]: > 100 µM (inactive)
GI50 [32]: > 100 µM (inactive)
GI50 [33]: > 100 µM (inactive)
GI50 [34]: > 100 µM (inactive)
GI50 [35]: > 100 µM (inactive)
GI50 [36]: > 100 µM (inactive)
GI50 [37]: > 100 µM (inactive)
GI50 [38]: > 100 µM (inactive)
GI50 [39]: > 100 µM (inactive)
GI50 [40]: > 100 µM (inactive)
GI50 [41]: > 100 µM (inactive)
GI50 [42]: > 100 µM (inactive)
GI50 [43]: > 100 µM (inactive)
GI50 [44]: > 100 µM (inactive)
GI50 [45]: > 100 µM (inactive)
GI50 [46]: > 100 µM (inactive)
GI50 [47]: > 100 µM (inactive)
GI50 [48]: > 100 µM (inactive)
GI50 [49]: > 100 µM (inactive)
GI50 [50]: > 100 µM (inactive)
GI50 [51]: > 100 µM (inactive)
GI50 [52]: > 100 µM (inactive)
GI50 [53]: > 100 µM (inactive)
GI50 [54]: > 100 µM (inactive)

CN(C)c1nc2n(CCO)ccnc-2c(=O)n1
GI50 [1]: > 100 µM (inactive)
GI50 [2]: > 100 µM (inactive)
GI50 [3]: > 100 µM (inactive)
GI50 [4]: > 100 µM (inactive)
GI50 [5]: > 100 µM (inactive)
GI50 [6]: > 100 µM (inactive)
GI50 [7]: > 100 µM (inactive)
GI50 [8]: > 100 µM (inactive)
GI50 [9]: > 100 µM (inactive)
GI50 [10]: > 100 µM (inactive)
GI50 [11]: > 100 µM (inactive)
GI50 [12]: > 100 µM (inactive)
GI50 [55]: > 100 µM
GI50 [14]: > 100 µM (inactive)
GI50 [15]: > 100 µM (inactive)
GI50 [16]: > 100 µM (inactive)
GI50 [17]: > 100 µM (inactive)
GI50 [18]: > 100 µM (inactive)
GI50 [19]: > 100 µM (inactive)
GI50 [20]: > 100 µM (inactive)
GI50 [56]: > 100 µM (inactive)
GI50 [21]: > 100 µM (inactive)
GI50 [23]: > 100 µM (inactive)
GI50 [24]: > 100 µM (inactive)
GI50 [25]: > 100 µM (inactive)
GI50 [26]: > 100 µM (inactive)
GI50 [27]: > 100 µM (inactive)
GI50 [28]: > 100 µM (inactive)
GI50 [29]: > 100 µM (inactive)
GI50 [30]: > 100 µM (inactive)
GI50 [31]: > 100 µM (inactive)
GI50 [57]: > 100 µM (inactive)
GI50 [32]: > 100 µM (inactive)
GI50 [33]: > 100 µM (inactive)
GI50 [34]: > 100 µM (inactive)
GI50 [35]: > 100 µM (inactive)
GI50 [36]: > 100 µM (inactive)
GI50 [58]: > 100 µM (inactive)
GI50 [37]: > 100 µM (inactive)
GI50 [38]: > 100 µM (inactive)
GI50 [39]: > 100 µM (inactive)
GI50 [40]: > 100 µM (inactive)
GI50 [41]: > 100 µM (inactive)
GI50 [59]: > 100 µM (inactive)
GI50 [42]: > 100 µM (inactive)
GI50 [43]: > 100 µM (inactive)
GI50 [44]: > 100 µM (inactive)
GI50 [45]: > 100 µM (inactive)
GI50 [46]: > 100 µM (inactive)
GI50 [47]: > 100 µM (inactive)
GI50 [48]: > 100 µM (inactive)
GI50 [49]: > 100 µM (inactive)
GI50 [50]: > 100 µM (inactive)
GI50 [51]: > 100 µM (inactive)
GI50 [52]: > 100 µM (inactive)
GI50 [53]: > 100 µM (inactive)
GI50 [54]: > 100 µM (inactive)

Reference: ChEMBL document CHEMBL1201862, “PubChem BioAssay data set” (2004)
